# From ChEMBL document CHEMBL1201862, “PubChem BioAssay data set” (2004)
# “And” between values parts separate entries of the source, which are not always exact repeats. Identical values can stand only once.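 These data come from cells grown in 96-well plates and exposed to compound for 48 hours at five concentrations. At the GI50, growth is halved.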 The source made the active and inactive calls. Rule as the data show it: active = GI50 up to about 1.1 µM and inactive = higher.
# How the values were obtained:
# Assay in all cases: inhibition of tumour cell growth, NCI panel, 48 h
# TK-10 = tested on: TK-10
# SF-295 = tested on: SF-295
# SF-268 = tested on: SF-268
# U-251 = tested on: U-251
# SK-MEL-28 = tested on: SK-MEL-28
# SK-OV-3 = tested on: SK-OV-3
# OVCAR-3 = tested on: OVCAR-3
# NCI-H522 = tested on: NCI-H522
# NCI-H460 = tested on: NCI-H460
# ACHN = tested on: ACHN
# HOP-92 = tested on: HOP-92
# RXF 393 = tested on: RXF 393
# MDA-MB-435 = tested on: MDA-MB-435
# DU-145 = tested on: DU-145
# A498 = tested on: A498
# BT-549 = tested on: BT-549
# OVCAR-8 = tested on: OVCAR-8
# T47D = tested on: T47D
Compound,GI50 (TK-10),GI50 (SF-295),GI50 (SF-268),GI50 (U-251),GI50 (SK-MEL-28),GI50 (SK-OV-3),GI50 (OVCAR-3),GI50 (NCI-H522),GI50 (NCI-H460),GI50 (ACHN),GI50 (HOP-92),GI50 (RXF 393),GI50 (MDA-MB-435),GI50 (DU-145),GI50 (A498),GI50 (BT-549),GI50 (OVCAR-8),GI50 (T47D)
CCOC(=O)Nc1sc2c(c1C#N)CCCC2,> 100 µM (inactive),> 100 µM (inactive),> 100 µM (inactive),> 100 µM (inactive),> 100 µM (inactive),> 100 µM (inactive),> 100 µM (inactive),64 µM (inactive),> 100 µM (inactive),> 100 µM (inactive),47.3 µM (inactive),> 100 µM (inactive),48.2 µM (inactive),> 100 µM (inactive),85.3 µM (inactive),49 µM (inactive),–,–
O=C(O)C12C3CCC(O3)C1(C(=O)O)C1CCC2O1 (configuration not stated),> 100 µM (inactive),> 100 µM (inactive),> 100 µM (inactive),> 100 µM (inactive),> 100 µM (inactive),> 100 µM (inactive),> 100 µM (inactive),> 100 µM (inactive),> 100 µM (inactive),> 100 µM (inactive),–,> 100 µM (inactive) and 53.6 µM (inactive),> 100 µM (inactive),> 100 µM (inactive),> 100 µM (inactive),> 100 µM (inactive),> 100 µM (inactive),> 100 µM (inactive)
C1=CC2=CC=CC3c4nc5ccc6ccccc6c5nc4C(=C1)C23 (configuration not stated),> 100 µM (inactive),> 100 µM (inactive),> 100 µM (inactive),> 100 µM (inactive),> 100 µM (inactive),> 100 µM (inactive),> 100 µM (inactive),–,> 100 µM (inactive),> 100 µM (inactive),> 100 µM (inactive),> 100 µM (inactive),> 100 µM (inactive),> 100 µM (inactive),–,–,> 100 µM (inactive),> 100 µM (inactive)
CCCCCCCCCCCCOCC(COP(=O)(O)OCCN=[N+]=[N-])OC(=O)CCCCCCCCCCC (configuration not stated),> 100 µM (inactive),> 100 µM (inactive),> 100 µM (inactive),> 100 µM (inactive),> 100 µM (inactive),> 100 µM (inactive),> 100 µM (inactive),> 100 µM (inactive),> 100 µM (inactive),> 100 µM (inactive),> 100 µM (inactive),> 100 µM (inactive),> 100 µM (inactive),> 100 µM (inactive),> 100 µM (inactive),–,> 100 µM (inactive),> 100 µM (inactive)
O=C(N/N=C1\CCc2ccccc2C1)N/N=C1\CCc2ccccc2C1,> 10 µM (inactive),> 10 µM (inactive),> 10 µM (inactive),> 10 µM (inactive),–,–,> 10 µM (inactive),> 10 µM (inactive),> 10 µM (inactive),> 10 µM (inactive),–,> 10 µM (inactive),> 10 µM (inactive),> 10 µM (inactive),–,> 10 µM (inactive),> 10 µM (inactive),> 10 µM (inactive)
CC(=O)OC[C@H]1CN(OC(C)=O)C[C@@H](n2cc(C)c(=O)[nH]c2=O)O1,> 100 µM (inactive),> 100 µM (inactive),> 100 µM (inactive),> 100 µM (inactive),> 100 µM (inactive),> 100 µM (inactive),–,–,> 100 µM (inactive),> 100 µM (inactive),–,> 100 µM (inactive),> 100 µM (inactive),> 100 µM (inactive),> 100 µM (inactive),> 100 µM (inactive),> 100 µM (inactive),> 100 µM (inactive)
[O-][n+]1nc(N2CCOCC2)nc2ccccc21,77.1 µM (inactive),> 100 µM (inactive),> 100 µM (inactive),> 100 µM (inactive),> 100 µM (inactive),> 100 µM (inactive),–,> 100 µM (inactive),–,> 100 µM (inactive),–,49.5 µM (inactive),> 100 µM (inactive),> 100 µM (inactive),43.3 µM (inactive),> 100 µM (inactive),> 100 µM (inactive),> 100 µM (inactive)
[O-][S+]1CC[S+]([O-])CC[S+]([O-])CC1 (configuration not stated),> 100 µM (inactive),> 100 µM (inactive),> 100 µM (inactive),> 100 µM (inactive),> 100 µM (inactive),> 100 µM (inactive),> 100 µM (inactive),> 100 µM (inactive),> 100 µM (inactive),–,> 100 µM (inactive),–,> 100 µM (inactive),> 100 µM (inactive),–,> 100 µM (inactive),> 100 µM (inactive),> 100 µM (inactive)
COc1ccc(NC(=O)CSc2nc(C)nc3c2sc(=S)n3-c2ccccc2)cc1,> 10 µM (inactive),7.26 µM (inactive),> 10 µM (inactive),> 10 µM (inactive),> 10 µM (inactive),> 10 µM (inactive),6.15 µM (inactive),> 10 µM (inactive),3.73 µM (inactive),4.68 µM (inactive),2.11 µM (inactive),> 10 µM (inactive),7.91 µM (inactive),> 10 µM (inactive),5 µM (inactive),–,> 10 µM (inactive),> 10 µM (inactive)
Cc1nc(Cl)c(CBr)c(Cl)n1,2.08 µM (inactive),8.45 µM (inactive),2.69 µM (inactive),2.04 µM (inactive),1.49 µM (inactive),3.84 µM (inactive),0.596 µM (active),0.518 µM (active),2.33 µM (inactive),1.71 µM (inactive),–,2.11 µM (inactive),1.64 µM (inactive),2.58 µM (inactive),11.7 µM (inactive),0.272 µM (active),1.72 µM (inactive),1.88 µM (inactive)
COc1cc(O)c2c(c1)OCC1(Cc3cc(OC)c(OC)cc31)C2=O (configuration not stated),> 100 µM (inactive),30.5 µM (inactive),> 100 µM (inactive),> 100 µM (inactive),> 100 µM (inactive),> 100 µM (inactive),34 µM (inactive),84.9 µM (inactive),> 100 µM (inactive),> 100 µM (inactive),23.3 µM (inactive),> 100 µM (inactive),29 µM (inactive),> 100 µM (inactive),> 100 µM (inactive),–,> 100 µM (inactive),11.9 µM (inactive)
O=C(c1ccccc1)N1C(=O)N(c2ccccc2)C(=N/c2ccccc2)/C1=N\c1ccccc1,> 100 µM (inactive),> 100 µM (inactive),> 100 µM (inactive),> 100 µM (inactive),> 100 µM (inactive),> 100 µM (inactive),–,11 µM (inactive),15 µM (inactive),80.7 µM (inactive),64.1 µM (inactive),99.3 µM (inactive),> 100 µM (inactive),> 100 µM (inactive),> 100 µM (inactive),–,> 100 µM (inactive),> 100 µM (inactive)
CN(CCCCCl)P(=O)(OCc1ccc([N+](=O)[O-])o1)OCC1OC(n2ccc(N)nc2=O)C(O)C1O (configuration not stated),37.7 µM (inactive),13.9 µM (inactive),7.6 µM (inactive),2.14 µM (inactive),2.33 µM (inactive),4.17 µM (inactive),2.1 µM (inactive),3.15 µM (inactive),2.29 µM (inactive),11.7 µM (inactive),–,6.21 µM (inactive),1.98 µM (inactive),6.93 µM (inactive),–,–,2.82 µM (inactive),1.26 µM (inactive)
Fc1cccc(Cl)c1C1SCc2nc3cc4ccccc4cc3n21 (configuration not stated),62.7 µM (inactive),62.7 µM (inactive),> 100 µM (inactive),> 100 µM (inactive),> 100 µM (inactive),37 µM (inactive),66.1 µM (inactive),–,–,> 100 µM (inactive),19.6 µM (inactive),> 100 µM (inactive),> 100 µM (inactive),> 100 µM (inactive),–,> 100 µM (inactive),39.4 µM (inactive),> 100 µM (inactive)
CC(=O)c1ccc(/N=N/c2ccc3nonc3c2N)cc1,53.1 µM (inactive),83.4 µM (inactive),> 100 µM (inactive),> 100 µM (inactive),> 100 µM (inactive),> 100 µM (inactive),88.3 µM (inactive),–,> 100 µM (inactive),> 100 µM (inactive),> 100 µM (inactive),> 100 µM (inactive),> 100 µM (inactive),> 100 µM (inactive),–,–,> 100 µM (inactive),> 100 µM (inactive)
CCNc1ncnc2c1nnn2CC,> 100 µM (inactive),79.6 µM (inactive),–,> 100 µM (inactive),> 100 µM (inactive),> 100 µM (inactive),> 100 µM (inactive),> 100 µM (inactive),–,> 100 µM (inactive),72.1 µM (inactive),> 100 µM (inactive),> 100 µM (inactive),> 100 µM (inactive),> 100 µM (inactive),–,97.5 µM (inactive),> 100 µM (inactive)
C=C1C(=O)C23CC1CCC2C12CO[C@H](O)[C@H]1C(C)(C)[C@H](OC(C)=O)C[C@H]2OC3=O (some centres not stated),14.3 µM (inactive),> 100 µM (inactive),14.7 µM (inactive),64.1 µM (inactive),17.1 µM (inactive),> 100 µM (inactive),22.5 µM (inactive),1.26 µM (inactive),34.6 µM (inactive),15.9 µM (inactive),10.1 µM (inactive),–,21.5 µM (inactive),25.5 µM (inactive),–,9.48 µM (inactive),30.6 µM (inactive),19.7 µM (inactive)
